The source of these data is PubChem BioAssay AID1398 (The Scripps Research Institute Molecular Screening Center, 2008).

This assay deals with Signal transducer and activator of transcription 3 (Homo sapiens) (UniProt P40763). Briefly: STAT3 activation reporter response, dose response, cell-based (AID 1398).

Calls of active or inactive are those of the source. The rule behind the calls is not given here.

Usually IC50 stands for the concentration that gives 50% inhibition. Take `NC(=O)CSc1c[nH]c2ccccc12`: the IC50 entry was “inactive”.
The same measure for `O=C(Cc1c[nH]c2ccccc12)Nc1nc2ccccc2[nH]1`: 4.98 µM; for `O=C(CCCSc1nc2ccccc2s1)NCc1ccco1`: “inactive”.
Then `O=C(CCc1nnc(Cc2ccc3c(c2)OCO3)o1)NCc1nc2ccccc2s1`, with 2.85 µM; and `Cc1nc(/N=C(\N)Nc2ccccc2)nc2ccccc12`, with 2.11 µM; and `COc1ccccc1C(=O)NNC(=O)c1ccc(NC(=O)C(C)C)cc1`, with 1.3 µM.
The same measure for `CCC(CC)NC(=O)Cc1ccccc1[N+](=O)[O-]`: > 55.7 µM (inactive); for `CN1CCN(C(=O)CNc2ccc(C(F)(F)F)cc2[N+](=O)[O-])CC1`: 3.56 µM.
Regarding `Nc1ccccc1Sc1nc2ccccc2[nH]1`, the IC50 entry was “inactive”.
Then `CC1=NN(c2ccccc2)C(=O)/C1=C/c1c(O)[nH]c(=O)[nH]c1=O`, with > 55.7 µM (inactive); and `COc1ccc(C2c3[nH]c4ccccc4c3CCN2C(=O)c2ccc(=O)n(C)n2)c(F)c1` (centres undefined), with 2.44 µM; and `CCOc1ccccc1C1CC(c2cccs2)=NN1S(C)(=O)=O` (centres undefined), with > 55.7 µM (inactive).
The same measure for `COCCNC(=O)C(=O)NNC(=O)c1ccccc1OC`: “inactive”; for `COc1cccc2sc(Nc3nnc(-c4ccc(F)cc4)o3)nc12`: > 0.688 µM (inactive); for `CC(=O)N1N=C(c2ccccc2O)OC1(C)CC(=O)Nc1ccccc1` (centres undefined): > 55.7 µM (inactive).
The same measure for `O=C(Cc1cnc2ncnn2c1)N1CCc2c([nH]c3ccccc23)C1c1ccccc1F` (centres undefined): “inactive”; for `O=C(c1cc[n+]([O-])cc1)N1CCc2c([nH]c3ccccc23)C1c1ccccc1Cl` (centres undefined): 8.29 µM.
Take `O=C(COc1ccccc1Cl)Nc1cc(Cl)ccc1O`: the IC50 is 0.571 µM.
The same measure for `COCCCNC(=O)c1cc2c(-c3ccc(Cl)cc3)nn(C)c2s1`: > 55.7 µM (inactive); for `CN1C(=O)c2ccccc2C(C(=O)NCCCN2CCCC2=O)C1c1c[nH]c2ccccc12` (centres undefined): > 55.7 µM (inactive); for `Cc1cc(-c2ccc(Cl)cc2)c(C#N)c(N)n1`: 5.9 µM.
Turning to `Cn1nc(-c2ccc(Cl)cc2)c2cc(C(=O)NCCCN3CCOCC3)sc21`, the IC50 entry was “inactive”.
For `CN1CCN(CCCNC(=O)c2cc3c(-c4ccc(Cl)cc4)nn(C)c3s2)CC1`, the IC50 was 3.78 µM.
As to `O=c1c2ccccc2ncn1Cc1ccco1`, the IC50 was 5.66 µM.
Then `CCn1c(C(=O)Nc2ccsc2C(=O)OC)cc2sc(Cl)cc21`, with > 55.7 µM (inactive); and `COc1cccc(-c2nc(N3CCCCC3C)c3ccccc3n2)c1O` (centres undefined), with > 55.7 µM (inactive).
In the case of `COc1ccc(Cl)cc1NC(=O)c1oc(C)nc1C`, the IC50 is > 55.7 µM (inactive).
The same measure for `COCc1cc(C)nc2sc(C(=O)NN)c(-n3cccc3)c12`: “inactive”; for `CC1=C(C)C(=O)C(N2CCOCC2)=CC1=O`: “inactive”; for `COCCNC(=O)c1cc2c(-c3ccc(Cl)cc3)nn(C)c2s1`: > 55.7 µM (inactive).
The same measure for `Cc1nn(-c2ccc(Cl)cc2)c(N)c1C(O)(CSc1nccn1C)C(F)(F)F` (centres undefined): > 55.7 µM (inactive); for `CCCc1nnc(N2C(=O)c3cccc4cccc(c34)C2=O)s1`: > 55.7 µM (inactive).
Then `CCN1CCN(C(=O)c2cc3c(-c4ccc(Cl)cc4)nn(C)c3s2)CC1`, with > 55.7 µM (inactive); and `CC1CCN(C(=O)Cn2c(=O)n(CCc3ccccc3)c(=O)c3ccccc32)CC1`, with > 55.7 µM (inactive); and `Cc1noc(/C=C/N(C)C)c1S(=O)(=O)N1CCc2ccccc21`, with “inactive”.
In the case of `CN(Cc1ccccc1)Cc1c[nH]c2ccccc12`, the IC50 is > 55.7 µM (inactive).
As to `COC(=O)c1n[nH]c2ccccc12`, the 50% inhibitory concentration (IC50) is 3.33 µM.
`c1ccc2c(CNC3CCCCCC3)c[nH]c2c1`: the IC50 was > 55.7 µM (inactive).
The same measure for `CCOC(=O)C1(CC2CCCCO2)CCN(Cc2cc3ccccc3[nH]2)CC1` (centres undefined): > 55.7 µM (inactive); for `COc1ccc(Cl)cc1NC(=O)Nc1ccc(Br)cn1`: > 55.7 µM (inactive); for `COc1ccc(NC(=O)N2CCn3c2nc2ccccc23)cc1`: > 55.7 µM (inactive).
The same measure for `COCc1cc(=O)n2c(-c3ccccc3OC)n[nH]c2n1`: 0.821 µM.
Then `Cc1nnc(NC(=O)c2oc3c(ccc4ccccc43)c2C)s1`, with > 0.619 µM (inactive).
`COc1ccc(-c2nnc(Nc3nc4c(OC)cccc4s3)o2)cc1`: the IC50 was > 55.7 µM (inactive).
Turning to `O=C(O)C1CC=CCC1C(=O)Nc1ccc(S(=O)(=O)N2CCCc3ccccc32)cc1` (centres undefined), the IC50 is 5.67 µM.
Then `COCCSc1ccccc1C(=O)NCCc1ccccc1`, with > 55.7 µM (inactive).
Take `CN(C)C(CN1C(=O)C2CC=CCC2C1=O)c1cn(C)c2ccccc12` (centres undefined): the IC50 was > 55.7 µM (inactive).
The same measure for `CC(=O)NCCC(=O)N1CCc2c([nH]c3ccccc23)C1c1cccc(C)c1` (centres undefined): 2.5 µM.
The same measure for `Cc1nc2ccccc2cc1O`: 3.4 µM; for `CCN(CC)S(=O)(=O)c1ccc(-c2nnc3sc4cccc(C)c4n23)cc1`: > 55.7 µM (inactive); for `O=C(CCN1CCOCC1)N1CCc2c([nH]c3ccccc23)C1c1cccc(Cl)c1` (centres undefined): 7.41 µM.
For the molecule `CN(C)C(=O)COC(=O)/C=C/c1ccccc1[N+](=O)[O-]`, the IC50 is 7.75 µM.
`c1ccc2c(c1)CCCN2c1nc2ccccc2n2cnnc12`: the IC50 was 1.36 µM.
With `O=C(CN1CCNCC1)Nc1ccc(Oc2ccccc2)cc1`, the IC50 is > 55.7 µM (inactive).
The same measure for `COc1ccc(-c2nc3scc(-c4ccccc4)n3n2)cc1`: 5.79 µM.
Then `COC(=O)NNC(=O)c1ccccc1OC`, with 6.03 µM; and `O=C(C1CCCN(S(=O)(=O)c2cccc3cccnc23)C1)N1CCc2ccccc21` (centres undefined), with > 55.7 µM (inactive).
Then `CCOC(=O)c1sc(NCc2ccco2)c(-c2nc3ccccc3s2)c1N`, with 9.76 µM; and `COc1ccc(C2c3[nH]c4ccccc4c3CCN2C(=O)c2cc3ncccn3n2)c(F)c1` (centres undefined), with 5.23 µM.
With `Cn1nc(-c2ccc(Cl)cc2)c2cc(C(=O)NCC3CCCO3)sc21` (centres undefined), the IC50 was > 6.19 µM (inactive).
Then `CC(=O)NCCC(=O)N1CCc2c([nH]c3ccccc23)C1c1cccc(Cl)c1` (centres undefined), with > 55.7 µM (inactive); and `CCOc1ccc(CN2CCN(Cc3cc4ccccc4[nH]3)CC2CCO)cc1` (centres undefined), with 0.644 µM.
The same measure for `Cc1ccccc1C1c2[nH]c3ccccc3c2CCN1C(=O)c1ccc(=O)n(C)n1` (centres undefined): 4.19 µM; for `CC(=O)n1cc(Nc2ccc([N+](=O)[O-])cc2)c2ccccc21`: > 55.7 µM (inactive); for `Cc1ccc(CC(=O)Nc2nc3c(s2)CCCC3)cc1`: > 55.7 µM (inactive).
As to `O=C(Nc1ccccc1O)c1csc2c1CCCC2`, the concentration for half-maximal inhibition (IC50) was 2.44 µM.
The same measure for `CCOc1ccccc1-c1n[nH]c(=S)o1`: 0.521 µM.
The same measure for `Cc1c(C(=O)NCc2cccnc2)oc2ccc(S(=O)(=O)N3CC(C)CC(C)C3)cc12` (centres undefined): > 55.7 µM (inactive); for `CC1Cc2ccccc2N1Cc1cc(=O)n2ccsc2n1` (centres undefined): “inactive”; for `Cc1c(C#N)c2ccccc2n1CC(=O)O`: 5.09 µM.
The same measure for `O=C(Cc1cccs1)Nc1ccccn1`: 8.06 µM; for `CCOc1cc(-c2ccc(N)c(OCC)c2)ccc1N`: > 55.7 µM (inactive).
With `COc1ccc(C)cc1NC(=O)c1[nH]c(C)c(C(C)=O)c1C`, the IC50 entry is “inactive”.
`CCc1cc2c(NCCC(=O)O)nc(C)nc2s1`: the IC50 was > 55.7 µM (inactive).
Then `CCCNC(=O)Cn1c2ccccc2c2nc(=O)cc(C)n21`, with 3.33 µM.
The same measure for `COCCCNc1nc2c(-c3cccc(C(F)(F)F)c3)nnn2c2ccccc12`: > 55.7 µM (inactive); for `N#Cc1cn(CC(=O)O)c2ccccc12`: 9.78 µM.
Then `CCC(C(=O)Nc1ccccc1OC)n1c(C(=O)OC)cc2ccsc21` (centres undefined), with 2.02 µM.
`COc1ccccc1-c1nnc(SCC(=O)NC2CCCCC2)o1`: the concentration for half-maximal inhibition (IC50) is 1.87 µM.
As to `CCOC(=O)CC1C(=O)NCCN1C(=O)c1cc2c(=O)n3cccc(C)c3nc2s1` (centres undefined), the IC50 is > 55.7 µM (inactive).
The same measure for `O=C(Nc1nnc(-c2ccccc2Cl)o1)c1nc2ccccc2s1`: > 55.7 µM (inactive).
Then `CC(C)CC(=O)NC(=S)Nc1nc(-c2ccccc2)cs1`, with 0.468 µM.
The same measure for `Cc1nc2c(n1C1CCCCC1)C(=O)c1ccccc1C2=O`: 5.8 µM; for `COc1ccc(Br)cc1C(=O)Nc1cccc(C)c1`: “inactive”.
With `Cc1cc(C)n(-c2nnc3n2N=C(c2c[nH]c4ccccc24)CS3)n1`, the IC50 result was “inactive”.
Then `CCOc1ccccc1CN1CCN(Cc2cc3ccccc3[nH]2)CC1CCO` (centres undefined), with > 55.7 µM (inactive); and `Cc1cccc2c1NC(=O)/C2=C\C(=O)c1cccs1`, with > 18.6 µM (inactive); and `COc1ccc(S(=O)(=O)Nc2nc3ccccc3s2)cc1OC`, with “inactive”.
As to `COc1ccccc1C(=O)NNC(=S)Nc1ccccc1`, the IC50 is > 0.229 µM (inactive).
Then `Cn1nc(-c2ccc(Cl)cc2)c2cc(C(=O)NCCN3CCOCC3)sc21`, with 6.88 µM; and `Nc1nnc(Cc2c[nH]c3ccccc23)s1`, with > 55.7 µM (inactive).
Then `O=C(c1cccnc1)N1CCc2ccccc21`, with 8.13 µM; and `COc1ccc(CN2CCN(S(=O)(=O)c3ccc(C)cc3)CC2)cc1Br`, with 6.13 µM.
Then `CCCN(CCC)C(=O)Cn1c2ccccc2c2nc(=O)cc(C)n21`, with 0.174 µM.
On to `COc1ccc(Cl)cc1-c1nc(-c2ccc(Br)o2)no1`, for which the IC50 is 8.51 µM.
For the molecule `CCC(=O)NCCSc1c[nH]c2ccccc12`, the IC50 entry is “inactive”.
Then `CN1N=C(C(=O)N2CCc3c([nH]c4ccccc34)C2c2c(F)cccc2Cl)CCC1=O` (centres undefined), with 4.82 µM.
Consider `O=C(Cc1c[nH]c2ccccc12)Nc1nnc(C2CC2)s1`, for which the IC50 was 2.98 µM.
Then `O=C(O)C(Cc1c[nH]c2ccccc12)N1Cc2ccccc2C1=O` (centres undefined), with “inactive”.
